Results from the NIST ThermoML archive (doi:10.1016/j.jct.2018.05.029).

What was measured:
[1] = molar heat capacity at saturation pressure
[2] = Molar enthalpy of transition or fusion; details: Crystal; Adiabatic calorimetry

Cc1cc2ccccc2[nH]1 [2-methylindole]
molar heat capacity [J/K/mol], [1]
Details | Crystal | Liquid
10 K, Vacuum adiabatic calorimetry | 2.311 | –
11.27 K, Vacuum adiabatic calorimetry | 3.226 | –
12.41 K, Vacuum adiabatic calorimetry | 4.157 | –
13.64 K, Vacuum adiabatic calorimetry | 5.288 | –
15.08 K, Vacuum adiabatic calorimetry | 6.718 | –
16.68 K, Vacuum adiabatic calorimetry | 8.364 | –
18.46 K, Vacuum adiabatic calorimetry | 10.26 | –
20 K, Vacuum adiabatic calorimetry | 11.87 | –
20.49 K, Vacuum adiabatic calorimetry | 12.38 | –
22.77 K, Vacuum adiabatic calorimetry | 14.82 | –
25.3 K, Vacuum adiabatic calorimetry | 17.44 | –
27.77 K, Vacuum adiabatic calorimetry | 19.95 | –
30 K, Vacuum adiabatic calorimetry | 22.09 | –
30.59 K, Vacuum adiabatic calorimetry | 22.64 | –
34.09 K, Vacuum adiabatic calorimetry | 25.92 | –
37.85 K, Vacuum adiabatic calorimetry | 29.24 | –
40 K, Vacuum adiabatic calorimetry | 31.03 | –
41.97 K, Vacuum adiabatic calorimetry | 32.62 | –
46.6 K, Vacuum adiabatic calorimetry | 36.27 | –
50 K, Vacuum adiabatic calorimetry | 38.75 | –
51.65 K, Vacuum adiabatic calorimetry | 39.93 | –
53.69 K, Vacuum adiabatic calorimetry | 41.38 | –
57.12 K, Vacuum adiabatic calorimetry | 43.67 | –
59.07 K, Vacuum adiabatic calorimetry | 45 | –
60 K, Vacuum adiabatic calorimetry | 45.61 | –
64.85 K, Vacuum adiabatic calorimetry | 48.69 | –
70 K, Vacuum adiabatic calorimetry | 51.82 | –
71.32 K, Vacuum adiabatic calorimetry | 52.61 | –
78.49 K, Vacuum adiabatic calorimetry | 56.75 | –
80 K, Vacuum adiabatic calorimetry | 57.59 | –
86.43 K, Vacuum adiabatic calorimetry | 61.12 | –
90 K, Vacuum adiabatic calorimetry | 63.03 | –
95.28 K, Vacuum adiabatic calorimetry | 65.82 | –
100 K, Vacuum adiabatic calorimetry | 68.27 | –
104.89 K, Vacuum adiabatic calorimetry | 70.77 | –
114.73 K, Vacuum adiabatic calorimetry | 75.78 | –
120 K, Vacuum adiabatic calorimetry | 78.44 | –
124.69 K, Vacuum adiabatic calorimetry | 80.8 | –
134.71 K, Vacuum adiabatic calorimetry | 85.9 | –
140 K, Vacuum adiabatic calorimetry | 88.58 | –
144.77 K, Vacuum adiabatic calorimetry | 91.01 | –
154.9 K, Vacuum adiabatic calorimetry | 96.19 | –
160 K, Vacuum adiabatic calorimetry | 98.83 | –
165.05 K, Vacuum adiabatic calorimetry | 101.46 | –
175.19 K, Vacuum adiabatic calorimetry | 106.71 | –
180 K, Vacuum adiabatic calorimetry | 109.23 | –
185.36 K, Vacuum adiabatic calorimetry | 112.05 | –
195.56 K, Vacuum adiabatic calorimetry | 117.49 | –
200 K, Vacuum adiabatic calorimetry | 119.87 | –
205.76 K, Vacuum adiabatic calorimetry | 122.96 | –
215.96 K, Vacuum adiabatic calorimetry | 128.49 | –
220 K, Vacuum adiabatic calorimetry | 130.72 | –
226.14 K, Vacuum adiabatic calorimetry | 134.11 | –
236.28 K, Vacuum adiabatic calorimetry | 139.71 | –
240 K, Vacuum adiabatic calorimetry | 141.78 | –
246.38 K, Vacuum adiabatic calorimetry | 145.35 | –
256.59 K, Vacuum adiabatic calorimetry | 151.16 | –
260 K, Vacuum adiabatic calorimetry | 153.09 | –
266.92 K, Vacuum adiabatic calorimetry | 157.02 | –
276.47 K, Vacuum adiabatic calorimetry | 162.53 | –
277.41 K, Vacuum adiabatic calorimetry | 163.05 | –
280 K, Vacuum adiabatic calorimetry | 164.7 | –
287.09 K, Vacuum adiabatic calorimetry | 169.07 | –
288.08 K, Vacuum adiabatic calorimetry | 169.56 | –
297.66 K, Vacuum adiabatic calorimetry | 175.26 | –
298.15 K, Vacuum adiabatic calorimetry | 175.55 | 224.57
298.88 K, Vacuum adiabatic calorimetry | 176.09 | –
300 K, Vacuum adiabatic calorimetry | 176.66 | 225.41
302.77 K, Vacuum adiabatic calorimetry | 178.44 | –
304.06 K, Vacuum adiabatic calorimetry | 179.13 | –
308.05 K, Vacuum adiabatic calorimetry | 181.6 | –
309.63 K, Vacuum adiabatic calorimetry | 182.65 | –
311.79 K, Vacuum adiabatic calorimetry | 184.11 | –
312.14 K, Vacuum adiabatic calorimetry | 184.35 | –
320 K, Vacuum adiabatic calorimetry | 189.37 | 234.36
320.34 K, Vacuum adiabatic calorimetry | 189.58 | –
331.97 K, Vacuum adiabatic calorimetry | 197.27 | 239.7
337.63 K, Vacuum adiabatic calorimetry | – | 242.18
338.88 K, Vacuum adiabatic calorimetry | – | 242.77
340 K, Vacuum adiabatic calorimetry | – | 243.31
341.57 K, Vacuum adiabatic calorimetry | – | 244.01
349.89 K, Vacuum adiabatic calorimetry | – | 247.67
350.31 K, Vacuum adiabatic calorimetry | – | 247.9
360 K, Vacuum adiabatic calorimetry | – | 252.22
362.02 K, Vacuum adiabatic calorimetry | – | 253.13
374.86 K, Vacuum adiabatic calorimetry | – | 258.66
380 K, Vacuum adiabatic calorimetry | – | 260.9
387.5 K, Vacuum adiabatic calorimetry | – | 264.11
399.88 K, Vacuum adiabatic calorimetry | – | 269.16
400 K, Vacuum adiabatic calorimetry | – | 269.22
412.6 K, Vacuum adiabatic calorimetry | – | 274.35
420 K, Vacuum adiabatic calorimetry | – | 277.24
425.58 K, Vacuum adiabatic calorimetry | – | 279.37
436.98 K, Vacuum adiabatic calorimetry | – | 283.72
440 K, Vacuum adiabatic calorimetry | – | 284.91
460 K, Small sample (50 mg) DSC | – | 292.55
480 K, Small sample (50 mg) DSC | – | 299.89
500 K, Small sample (50 mg) DSC | – | 307.02
520 K, Small sample (50 mg) DSC | – | 313.94
540 K, Small sample (50 mg) DSC | – | 320.66
560 K, Small sample (50 mg) DSC | – | 327.16
580 K, Small sample (50 mg) DSC | – | 333.46
600 K, Small sample (50 mg) DSC | – | 339.55
620 K, Small sample (50 mg) DSC | – | 345.45
640 K, Small sample (50 mg) DSC | – | 351.22
660 K, Small sample (50 mg) DSC | – | 356.94
680 K, Small sample (50 mg) DSC | – | 362.78
700 K, Small sample (50 mg) DSC | – | 369.01

Details | Molar enthalpy of transition or fusion [kcal/mol]
[2] | 3.547
